From ChEMBL document CHEMBL3526010, “Pharmacokinetics, biotransformation, and mass balance of edoxaban, a selective, direct factor Xa inhibitor, in humans” (Drug Metab Dispos, 2012) come the findings set out here.

The nature of series [1]: Elimination half life in human. The following applies: in vivo, read-out: beta t1/2 (converted). Type of series: ADME, organism-based.
In series [2] the test system is Plasma. Briefly: Cmax in human plasma at 60 mg, po by radio-HPLC chromatogram analysis. Format: ADME, organism-based. The arrangement: dose 60 mg, route oral. Conditions: in vivo.
For series [3], the system named is Blood. Briefly: Cmax in human whole blood at 60 mg, po by radio-HPLC chromatogram analysis. Type of series: ADME, organism-based. Details: dose 60 mg, route oral. The following applies: in vivo.
Series [4] has as its system Plasma. Briefly: AUC (0 to t) in human plasma at 60 mg, po by radio-HPLC chromatogram analysis. Type of series: ADME, organism-based. Conditions: in vivo.
Series [5] concerns Blood. In words: AUC (0 to t) in human whole blood at 60 mg, po by radio-HPLC chromatogram analysis. The following applies: in vivo. Format: ADME, organism-based.
The test system of series [6] is Plasma. Briefly: AUC (0 to infinity) in human plasma at 60 mg, po by radio-HPLC chromatogram analysis. Conditions: in vivo. Format: ADME, organism-based. The arrangement: dose 60 mg, time infinity, route oral.
The subject of series [7] is Blood. In words: AUC (0 to infinity) in human whole blood at 60 mg, po by radio-HPLC chromatogram analysis. Type of series: ADME, organism-based. Details: dose 60 mg, time infinity, route oral. The following applies: in vivo.
Series [8] is described as follows: Drug metabolism in human assessed as metabolite excretion in feces at 60 mg, po after 168 hrs by radio-HPLC chromatogram analysis. The following applies: in vivo. Format: ADME, organism-based.
Series [9] in a line: Cmax in human plasma at 60 mg, po by LC-MS/MS analysis. Format: ADME, organism-based. The arrangement: dose 60 mg, route oral.
Series [10] can be described thus: Tmax in human plasma at 60 mg, po by LC-MS/MS analysis. Format: ADME, organism-based.
Series [11] in a line: AUC (0 to t) in human plasma at 60 mg, po by LC-MS/MS analysis. Format: ADME, organism-based.
Series [12] in a line: AUC (0 to infinity) in human plasma at 60 mg, po by LC-MS/MS analysis. Type of series: ADME, organism-based. Details: dose 60 mg, route oral, time infinity.
Series [13] in a line: Terminal elimination half life in human plasma at 60 mg, po by LC-MS/MS analysis. Type of series: ADME, organism-based. Conditions: read-out: beta t1/2 (converted).
The subject of the next series is Homo sapiens. In words: Toxicity in human assessed as sign of adverse effect at 60 mg, po. The following applies: in vivo. Type of series: organism-based.
Series [14] can be described thus: Retention time of the compound. Format: physicochemical.
Another series is described as follows: clinical. The following applies: human, in vivo.
Series [15] in a line: Drug excretion in urine of human treated with 60 mg, po of [14C]edoxaban after 168 hrs by radio-HPLC chromatogram analysis. Format: ADME, organism-based. The following applies: in vivo.
The nature of series [16]: Drug excretion in feces of human treated with 60 mg, po of [14C]edoxaban after 168 hrs by radio-HPLC chromatogram analysis. Conditions: in vivo. Type of series: ADME, organism-based.
Series [17] concerns Plasma. In words: Cmax in human plasma treated with 60 mg, po of [14C]edoxaban by LC-MS/MS analysis. Format: ADME, organism-based. The arrangement: dose 60 mg, route oral. Conditions: in vivo.
For series [18], the system named is Plasma. Briefly: Tmax in human plasma treated with 60 mg, po of [14C]edoxaban by LC-MS/MS analysis. Type of series: ADME, organism-based. Conditions: in vivo.
For series [19], the system named is Plasma. In words: AUC (0 to t) in human plasma treated with 60 mg, po of [14C]edoxaban by LC-MS/MS analysis. Format: ADME, organism-based. The following applies: in vivo.
Series [20] has as its system Plasma. In words: AUC (0 to infinity) in human plasma treated with 60 mg, po of [14C]edoxaban by LC-MS/MS analysis. Type of series: ADME, organism-based. The arrangement: dose 60 mg, time infinity, route oral. The following applies: in vivo.
Series [21] has as its system Plasma. In words: Terminal elimination half life in human plasma treated with 60 mg, po of [14C]edoxaban by LC-MS/MS analysis. Format: ADME, organism-based.

As usually defined, the Tmax is the time from dosing to the highest level. The AUC(0-t) is the area under the concentration-time curve up to a stated or last time point. A lower AUC(0-t) goes with low exposure. The AUC(0-inf) is total exposure, with the tail of the curve extrapolated. Consider `CN1CCc2nc([14C](=O)N[C@@H]3C[C@@H](C(=O)N(C)C)CC[C@@H]3NC(=O)C(=O)Nc3ccc(Cl)cn3)sc2C1`, for which the half-life is 8 h in [1] and 7.4 h in [13]. Further, the Cmax stood at 0.349 ugequiv/ml in the series on Plasma [2], 0.352 ugequiv/ml in the series on Blood [3] and 332 ng/mL in series [9]. Besides, the AUCt with Plasma [4] is given as 1.683 ugequiv.h/ml; in the series on Blood [5] it was 1.269 ugequiv.h/ml. In addition, the AUC is 1.947 ugequiv.h/ml in the series on Plasma [6] and 1.673 ugequiv.h/ml with Blood [7]. For the same compound, in [8], the Drug excretion came out at 0.05%. For the same compound, the results for the Tmax (in series [10]; in “clinical”) were 0.5 h and 1 h, respectively. Further, in [11], the AUC(0-t) worked out at 1580 ng·h/mL. Moreover, the AUC(0-inf) in [12] came to 1600 ng·h/mL. The Activity entry with Homo sapiens is given as “Non-toxic”. The Retention_time in [14] was found to be 54.08 min.

In [14], `CN1CCc2nc(C(=O)N[C@@H]3C[C@@H](C(=O)N(C)C)CC[C@@H]3N)sc2C1` (stereo in doubt; M2) returned a Retention_time of 34.09 min.

As for `CN(C)C(=O)[C@H]1CC[C@H](NC(=O)C(=O)Nc2ccc(Cl)cn2)[C@H](NC(=O)c2nc3c(s2)C[N+](C)([O-])CC3)C1` (stereo partly specified), the Retention_time in series [14] came out at 41.45 min.

For the compound `CN(C)C(=O)[C@H]1CC[C@H](NC(=O)C(=O)Nc2ccc(Cl)cn2)[C@H](NC(=O)c2nc3c(s2)CNCC3)C1`, the values for the Drug excretion in [15] and in series [16] were 0.45% and 1.66%, respectively. Besides, the Cmax with Plasma [17] turned out to be 6.99 ng/mL. Besides, the Tmax with Plasma [18] turned out to be 1 h. In the series on Plasma [19], this compound displayed an AUCt of 55.1 ng·h/mL. In addition, in the series on Plasma [20], the AUC was determined as 56.2 ng·h/mL. Besides, the “beta t1/2” value with Plasma [21] stood at 9 h. In series [14], this compound came in with a Retention_time of 46.52 min.

For the compound `CNC(=O)[C@H]1CC[C@H](NC(=O)C(=O)Nc2ccc(Cl)cn2)[C@H](NC(=O)c2nc3c(s2)CN(C)CC3)C1` (stereo in doubt; M8), the Drug excretion result in [15] (BLD = below limit of detection) is “BLD”; in series [16] it was 0.34%. Also, in the series on Plasma [17], the Cmax amounted to 0.63 ng/mL. For the same compound, the Tmax in the series on Plasma [18] worked out at 1.8 h. This compound came in with an AUCt with Plasma [19] of 3.5 ng·h/mL. In the series with Plasma [20], this compound came in with an AUC of 4.41 ng·h/mL. Besides, the “beta t1/2” value in the series with Plasma [21] turned out to be 9 h. The same compound gave a Retention_time in series [14] of 49.97 min.

As to `CN1CCc2nc(C(=O)N[C@@H]3C[C@@H](C(=O)O)CC[C@@H]3NC(=O)C(=O)Nc3ccc(Cl)cn3)sc2C1`, the Drug excretion in series [15] is recorded as 1.56%; in series [16], 1.93%. Besides, the Cmax in the series with Plasma [17] was 22.2 ng/mL. Further, in the series with Plasma [18], the Tmax was 1.8 h. For the same compound, in the series with Plasma [19], the AUCt is 145.5 ng·h/mL. This compound also showed an AUC with Plasma [20] of 147 ng·h/mL. The “beta t1/2” value with Plasma [21] came out at 8.2 h. Further, in [14], the Retention_time came to 40.84 min.

For `CN(C)C(=O)[C@H]1CC[C@H](NC(=O)C(=O)Nc2ccc(Cl)cn2)[C@H](NC(=O)c2nc3c(s2)C[N+](C)([C@@H]2O[C@H](C(=O)[O-])[C@@H](O)[C@H](O)[C@H]2O)CC3)C1` (stereo partly specified), the Retention_time in series [14] was found to be 38.9 min.

On to `CN1CCc2nc(C(=O)N[C@@H]3C[C@@H](C(=O)N(C)C)CC[C@@H]3NC(=O)C(=O)O)sc2C1`, for which the Drug excretion was 1.85% in [15] and “BLD” in series [16] (BLD = below limit of detection). In the series on Plasma [17], this compound yielded a Cmax of 14.9 ng/mL. For the same compound, the Tmax in the series with Plasma [18] is 1.8 h. This compound showed an AUCt in the series on Plasma [19] of 94.7 ng·h/mL. In the series on Plasma [20], this compound had an AUC of 95.8 ng·h/mL. The “beta t1/2” value in the series with Plasma [21] was 6.9 h. Also, the Retention_time in series [14] is 25.41 min.
